Patent US11707503B2, “Modulators of complement activity” (Ra Pharmaceuticals, Inc., priority 2015, dated 2023)
pIC50: −log10 of the molar value. Starred links: 1 amine or outer side, 2 acyl side, 3 side chain; linkers in the order of their positions; H or OH if unused. Positions of bridges follow the written chain, without caps; N, C: chain ends. Non-standard residues stand in square brackets, D forms with d. Residues, ends and D or L forms follow the SMILES beside them. Trp(7-aza) = N[C@@H](Cc1c[nH]c2ncccc12)C(=O)O; pXylylene = c1cc(C[*:2])ccc1C[*:1]; Phg = N[C@H](C(=O)O)c1ccccc1; NMeS = CN[C@@H](CO)C(=O)O; Nva = CCC[C@H](N)C(=O)O

Tests used:
[1] = target: T1, C5 (Homo sapiens, UniProt P01031); experiment: Human hemolysis assay (RBC lysis assay using complete human sera); format: cell-based; set-up: with complete human sera (Complement Technology, Tyler Tex.) and polypeptides; tissue Complement Technology, Tyler Tex; host or cells: complete human serum; conditions: compounds tested in in vivo studies; average IC50, assay and unit inferred
T1 sequence (P01031 678-1676 limits assumed): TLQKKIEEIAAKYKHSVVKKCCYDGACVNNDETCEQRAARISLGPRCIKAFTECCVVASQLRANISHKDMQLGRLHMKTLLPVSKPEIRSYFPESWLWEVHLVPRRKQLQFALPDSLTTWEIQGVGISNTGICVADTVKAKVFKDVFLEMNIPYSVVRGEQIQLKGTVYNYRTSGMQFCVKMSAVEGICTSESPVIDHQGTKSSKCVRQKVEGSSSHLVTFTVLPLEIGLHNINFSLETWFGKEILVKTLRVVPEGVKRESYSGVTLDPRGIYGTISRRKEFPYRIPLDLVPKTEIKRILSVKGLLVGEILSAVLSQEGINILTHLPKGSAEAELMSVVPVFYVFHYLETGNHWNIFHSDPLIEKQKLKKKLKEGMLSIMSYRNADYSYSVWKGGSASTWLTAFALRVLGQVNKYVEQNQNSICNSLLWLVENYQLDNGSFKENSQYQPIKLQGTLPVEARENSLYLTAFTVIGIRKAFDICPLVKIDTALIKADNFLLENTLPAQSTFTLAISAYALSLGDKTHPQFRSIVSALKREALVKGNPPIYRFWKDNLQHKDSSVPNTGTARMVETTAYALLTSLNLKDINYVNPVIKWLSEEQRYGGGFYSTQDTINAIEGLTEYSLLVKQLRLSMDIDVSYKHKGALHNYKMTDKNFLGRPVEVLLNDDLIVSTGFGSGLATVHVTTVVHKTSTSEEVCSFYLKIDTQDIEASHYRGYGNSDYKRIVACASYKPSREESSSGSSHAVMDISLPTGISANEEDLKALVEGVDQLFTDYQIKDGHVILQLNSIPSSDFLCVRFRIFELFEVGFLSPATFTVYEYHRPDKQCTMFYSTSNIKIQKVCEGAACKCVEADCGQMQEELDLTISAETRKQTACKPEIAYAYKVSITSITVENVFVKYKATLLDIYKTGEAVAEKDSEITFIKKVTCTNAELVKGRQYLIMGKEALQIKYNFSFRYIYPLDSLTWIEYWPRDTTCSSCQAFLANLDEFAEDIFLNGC
T1 sequence (P01031 19-673 limits assumed): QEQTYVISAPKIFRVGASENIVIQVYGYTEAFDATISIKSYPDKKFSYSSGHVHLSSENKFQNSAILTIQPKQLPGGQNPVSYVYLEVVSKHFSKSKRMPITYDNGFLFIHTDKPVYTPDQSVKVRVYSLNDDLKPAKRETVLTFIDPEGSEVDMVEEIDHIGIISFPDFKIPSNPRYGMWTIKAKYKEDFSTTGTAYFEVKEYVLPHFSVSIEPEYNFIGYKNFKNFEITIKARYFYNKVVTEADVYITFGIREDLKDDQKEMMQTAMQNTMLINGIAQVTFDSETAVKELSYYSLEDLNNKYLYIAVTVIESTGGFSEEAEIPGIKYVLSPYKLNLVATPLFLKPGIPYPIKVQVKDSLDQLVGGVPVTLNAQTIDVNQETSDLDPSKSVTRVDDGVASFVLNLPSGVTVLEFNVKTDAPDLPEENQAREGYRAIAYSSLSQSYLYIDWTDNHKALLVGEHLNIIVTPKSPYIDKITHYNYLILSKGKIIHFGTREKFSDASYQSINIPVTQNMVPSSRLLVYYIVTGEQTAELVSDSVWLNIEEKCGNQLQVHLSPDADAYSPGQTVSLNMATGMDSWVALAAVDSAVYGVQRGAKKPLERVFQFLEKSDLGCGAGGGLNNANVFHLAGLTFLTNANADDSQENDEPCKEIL
Protocol: Polypeptides listed in Table 3, as well as their optimized derivatives (see Table 4) were assessed for inhibitor activity using a red blood cell hemolysis assay. […] Human sera was rapidly thawed at 37° C. and then stored on ice until diluted into GVB++. Ten 6-fold serial dilutions of polypeptides (10 mM stock, DMSO) were performed in DMSO and then added to buffer. 50 μl of each polypeptide dilution was combined with sera and 100 μl of cells in individual wells of a 96-well tissue culture-treated clear microtitre plate (USA Scientific, Ocala, Fla.) and resuspended by pipetting. Samples were incubated at 37° C. for one hour. […] Data was fit with a log-logit formula producing a dose-response curve and IC50. As used herein, the term “IC50” refers to the half maximal inhibitory concentration, a value used to indicate the amount of the inhibitor needed to reduce a given reaction or process by half.
The human constant light chain kappa and IgG2 constant heavy chain sequences were used for the constants regions of the antibody. This antibody was expressed from human embryonic kidney cells (HEK293) and purified by Protein A affinity chromatography. […] Human sera was rapidly thawed at 37° C. and then stored on ice until diluted into GVB++. Ten 6-fold serial dilutions of each compound (10 mM stock, DMSO) were performed in DMSO and then added to buffer. 50 μl of each compound dilution was combined with sera and 100 μl of cells in individual wells of a 96-well tissue culture-treated clear microtitre plate (USA Scientific, Ocala, Fla.) and resuspended by pipetting. Samples were incubated at 37° C. for one hour. […] Data was fit with a log-logit formula producing a dose-response curve and IC50 (see FIG. 11A).

[2] = test system: rat C5; experiment: Binding to rat C5 (statement)
[3] = test system: primate C5 protein; experiment: Ex vivo hemolysis assay with cynomolgus plasma; format: cell-based, cynomolgus monkey
Protocol: At each time-point, the hemolytic activity was determined as an indicator of active serum complement (see FIG. 4).

[4] = Pharmacokinetic studies in rat (IV and SC); conditions: SC 30 mg/kg, combined R3152 and R3201
Text: In the figure, circles represent concentrations obtained after SC dose and squares represent concentrations obtained after IV dose.
Blood samples were collected at indicated time points, processed into plasma, and analyzed for the indicated compound by LC-MS. […] Blood samples were collected at indicated time points, processed into plasma, and analyzed for the indicated compound by LC-MS.

[5] = 3 mg/kg IV, cynomolgus monkey
[6] = test system: rat C5; experiment: Ex vivo hemolysis assays, rat PK study; format: cell-based; conditions: rat plasma after dosing
[7] = Compound stability in human plasma; format: in vitro ADME
Protocol: Compounds were assayed for stability in human plasma under the following conditions. Human plasma was obtained from Bioreclamation (Westbury, N.Y.) and collected in sodium heparin. Plasma was adjusted to pH 7.4. DMSO stocks at 10 mM concentration were prepared for the test compounds. Aliquots of the DMSO solutions were dosed into 1 mL of plasma, which had been pre-warmed to 37° C., at a final test compound concentration of 10 μM. The vials were kept in a benchtop THERMOMIXER® (Eppendorf, Hauppauge, N.Y.) for the duration of the experiment. Aliquots (100 μL) were taken at each timepoint and added to a 96-well plate that had been pre-filled with 300 μL of an acetonitrile solution containing mixture of the internal standards (metoprolol, propranolol and warfarin each at 500 ng/mL). […] Aliquots of the supernatant were removed and analyzed by LC-HRAMS.

[8] = target: T1, C5; experiment: Competitive fluorescence polarization (FP) binding assay with probe R3076; set-up: purchased Complement Technology, Tyler, Tex
Protocol: FP was used for screening competitive polypeptide inhibitors of the C5 protein. […] The BODIPY-TMR dye attached to the C-terminal lysine of the protein and the subsequent labeled probe was purified by HPLC.
Human C5 protein was diluted to 200 nM in assay buffer, composed of TBS (EMD Millipore, Billerica, Mass.)+0.005% Triton-X (Sigma, Saint Louis, Mo.). 10 μl of assay buffer was added to all wells of a black, non-binding, 384-well assay plate (Greiner, Monroe, N.C.) and 10 μl of diluted C5 protein stock was added to experimental and designated control wells.
Probe R3076 (SEQ ID NO: 40) was diluted 1 to 10 in DMSO (Life Technologies, Grand Island, N.Y.) and 30 μl of that stock was diluted in 3 ml of assay buffer to yield a 100 nM stock. 10 μl of this working stock was then added to each well in the assay plate. The assay plate was incubated at room temperature, protected from light, for 20 minutes to allow binding to reach equilibrium.
Test articles listed in Table 7 were subsequently diluted in DMSO then assay buffer, comprising 10 2-fold dilutions and were then added to the assay plate in triplicate, rapidly. The assay plate was then incubated in the Paradigm (Molecular Devices, Sunnyvale, Calif.) plate reader for 60 minutes at 25° C.
After incubation for 60 minutes, the plate was read using the Paradigm FP protocol (Molecular Devices, Sunnyvale, Calif.) and raw polarization values were imported into Graphpad Prism.

| SMILES | pIC50 [1] | binding to rat C5 [2] | time after dosing at which hemolytic activity returned to normal levels ([3]; 3 mg/kg IV, plasma levels fell below 100 ng/ml) | plasma concentration with clear inhibition of complement-mediated hemolysis ([3]; ex vivo, plasma diluted 1:100, after 3 mg/kg IV) | bioavailability of dose, based on AUC [4] | average AUC∞ [5] | mean clearance rate [5] | mean terminal half-life [5] | mean volume of distribution [5] | inhibitory activity in ex vivo hemolysis assays [6] | stability in human plasma in words [7] | Percent remaining at time 0 hrs ([7]; 37° C., 10 μM, 0 hrs) | competition for / affinity for C5 in words [8] |
| --- | --- | --- | --- | --- | --- | --- | --- | --- | --- | --- | --- | --- | --- |
| CCC[C@H](NC(=O)[C@@H](NC(=O)[C@@H]1CCCN1C(=O)[C@H](Cc1ccc(O)cc1)NC(=O)[C@H](CCC(=O)O)NC(=O)[C@H](Cc1c[nH]c2ncccc12)NC(=O)[C@H](Cc1ccc(O)cc1)NC(=O)[C@@H](NC(=O)[C@H](CC(=O)O)NC(=O)[C@@H]1CSCc2cccc(c2)CSC[C@H](NC(C)=O)C(=O)N[C@@H](C(C)C)C(=O)N[C@@H](CCC(=O)O)C(=O)N[C@@H](CCCNC(=N)N)C(=O)N[C@@H](Cc2ccccc2)C(=O)N1)C(C)(C)C)C1CCCCC1)C(=O)O [Compound R3201, [mXylyl(1,6)]Ac-C-V-E-R-F-C-D-Tbg-Y-azaTrp-E-Y-P-Chg-Nvl] | 8.11 | do not bind |  |  |  |  |  |  |  |  |  |  |  |
| CCC[C@H](NC(=O)[C@@H](NC(=O)[C@@H]1CCCN1C(=O)[C@H](Cc1ccc(O)cc1)NC(=O)[C@H](CCC(=O)O)NC(=O)[C@H](Cc1c[nH]c2ncccc12)NC(=O)[C@H](Cc1ccc(O)cc1)NC(=O)[C@@H](NC(=O)[C@H](CC(=O)O)NC(=O)[C@@H]1CSCc2cccc(c2)CSC[C@H](NC(C)=O)C(=O)N[C@@H](C(C)C)C(=O)N[C@@H](CCC(=O)O)C(=O)N[C@@H](CCCNC(=N)N)C(=O)N[C@@H](Cc2ccccc2)C(=O)N1)C(C)(C)C)C1CCCCC1)C(N)=O [Compound R3152, [mXylyl(1,6)]Ac-C-V-E-R-F-C-D-Tbg-Y-azaTrp-E-Y-P-Chg-Nvl-NH2] |  | do not bind | 48 h | > 200 ng/mL | approximately 65% | 23319 ± 2120 ng·h/mL | 2.15 ± 0.203 mL/min/kg | 10.9 ± 0.8 h | 1.49 ± 0.152 L/kg | very little inhibitory activity |  |  |  |
| CCC[C@H](NC(=O)[C@@H]1CSCc2ccc(cc2)CSC[C@H](NC(=O)[C@H](CCC)NC(C)=O)C(=O)N[C@@H](c2ccccc2)C(=O)N[C@@H]([C@@H](C)O)C(=O)N[C@@H](Cc2c[nH]c3ncccc23)C(=O)N[C@@H](CCC(=O)O)C(=O)N[C@@H](Cc2ccc(O)cc2)C(=O)N(C)[C@@H](CO)C(=O)N[C@@H](Cc2c[nH]cn2)C(=O)N1)C(N)=O [Compound R3050, [pXylyl(2,10)]Ac-Nvl-C-Phg-T-azaTrp-E-Y-(N—Me)S-H-C-Nvl-NH2] (Ac-[Nva]C[Phg]T[Trp(7-aza)]EY[NMeS]HC[Nva]-NH2; linker 2-10 via pXylylene) |  |  |  |  |  |  |  |  |  |  | highly stable | 100% | relatively strong affinity |
